Test results from article PMC11795524, “Melanin-Binding-Based Discovery of Topically Instilled Carbonic Anhydrase Inhibitors for Targeted Delivery and Prolonged Action in the Eye” (Molecular Pharmaceutics, 2025).
Several values for one entry are separate records, joined by “and”; a condition that tells them apart may be missing. Equal entries are not always repeated.

Assays:
[1] = In vitro melanin binding by microscale thermophoresis / initial fluorescence (Monolith NT.115 pico)
Source text: Melanin binding of the CAI-II compounds was studied with a Monolith NT.115 pico (NanoTemper Technologies GmbH, Munich, Germany) device using the method of […] et al. […] Otherwise, normalized fluorescence signals and the ratio of relative fluorescence after heating (MST mode) were used. The MST software was used in expert mode to allow heating for 30 s. […] As ligand autofluorescence may interfere with the assay, their autofluorescence values were pretested with the detector used in experiment (nanoblue or pico-red). Fluorescence of the ligand should be below 20% of melanin fluorescence. Sample aggregation and adsorption to the capillaries were used also as exclusion criteria.

[2] = test system: pigmented rabbits (Chinchilla Bastard); assay: IOP study in pigmented rabbits after single eye drop; type: in vivo, rabbit
Method: Five 3–5 months old albino (New Zealand White, all females) and five 3–6 months old pigmented rabbits (Chinchilla Bastard, 1 male and 4 females) were purchased from Charles River Laboratories, UK and Germany, respectively. Prior to the experiments, the rabbits were habituated to handling, and the baseline values of IOP were measured. During the experiments, rabbits weighed 2.4–4.0 kg.
First, stock solutions of CAIs (250 mg/mL) in dimethyl sulfoxide (Sigma-Aldrich, Germany) were prepared. These stock solutions were diluted with PBS (pH 7.4) to obtain 1 mg/mL (0.1%) or 10 mg/mL (1%) solutions.
The CAI solutions were tested in albino rabbits (eye drops of 0.1, and 0.5 or 1.0%) and in pigmented rabbits (0.5 or 1.0%). The novel CAI concentrations in solutions were determined based on the drug solubility with the aim to load the highest possible drug concentration to the single eye drop.
Baseline IOP of pigmented rabbits was raised with two intravitreal triamcinolone acetonide injections (Triesence 40 mg/mL, Novartis Finland Ltd.) with 1 week interval to each eye. This method[25],[26] may induce ocular hypertension even up to 60 days in rabbits.[25]
The rabbits were anesthetized with 0.4 mg/kg, s.c. medetomidine (Domitor vet 1 mg/mL, Orion Pharma, Espoo, Finland) and 20 mg/kg s.c. ketamine (Ketaminol vet 50 mg/mL, Pfizer Oy Animal Health, Espoo, Finland). Mydriasis was induced with topical tropicamide eyedrops (Oftan Tropicamid 5 mg/mL, Santen Pharmaceutical Co., Ltd., Tampere, Finland) and the ocular surface was anesthetized with oxybuprocaine eye drop (Oftan Obucain 4 mg/mL, Santen Pharmaceutical Co., Ltd., Tampere, Finland). Thereafter, intravitreal injection of triamcinolone acetonide (100 μL) was given with a 31G needle and syringe. After injection, the eyes were moisturized with carbomer gel (Viscotears 2 mg/g, Dr. Gerhard Mann chem.-pharm. Fabrik GmbH, Berlin, Germany) and the anesthesia was antagonized with 1 mg/kg atipamezole s.c. (Antisedan vet 5 mg/mL, Orion Pharma, Espoo, Finland).
After the second injection, IOP was allowed to settle for 10 days before the experiments were performed. […] Induction of ocular hypertension is presented in Appendix Figure 3. The IOP-lowering effects of the molecules were investigated sequentially, each test initiating once baseline IOP levels was attained.
The IOP levels in the rabbits were measured with a tonometer (Tonometer Pro, Icare Finland Ltd.). After baseline IOP measurements, a single eye drop (25 μL) was applied to the left eye, whereas the right eye was not treated. After eye drop instillation, the eyelids were kept open manually for 1 min. The IOP was measured from both eyes of the rabbits at 0.5, 1, 2, 3, 4, 5, 6, 7, and 8 h after eye drop instillation. In the case of the pigmented rabbits, the measurements were continued until 10 h postinstillation, and further until the IOP had returned to the normal baseline.
The CAIs were tested in the same rabbits to minimize interindividual data variation. Washout periods of at least 3 days were used between instillation of different compounds. The experiments started always at 8 a.m. to eliminate bias due to diurnal IOP fluctuation. At each time point, the pressure was measured three times with the same eye, and the average values were calculated and used in data analysis.

Melanin binding classification ([1]; class by Kd): high (high (<65 μM))
Kd ([1]; melanin nanoparticles 0.5 mg/mL, IF or MST mode, 68% confidence, read-out: Kd ± confidence (melanin binding)): 48 ± 13 µM
SMILES: C/C(=N\Nc1ccc(S(N)(=O)=O)cc1)c1cccnc1 [A01]
duration of IOP reduction ([2]; hypertensive pigmented rabbits, single eye drop): 14 days
duration of IOP decrease ([2]; pigmented rabbits, single eye drop): 2 weeks
ratio (AUCpigm/AUCalbino) of IOP response ([2]; pigmented vs albino rabbits): 85 and 85.5
